{"source": "patent US20130078224A1", "about": "“INDUCTION/MONITORING OF ARTERIOGENESIS USING SDF1 AND PDGFB OR INHIBITION OF PHD2” (LIFE SCIENCES RESEARCH PARTNERS VZW, priority 2010, published 2013)", "key": {"[1]": {"test_system": "PDGFB, SDF1, and Tie2", "test": "Gene expression (qRT-PCR) in PHD2Rosa26CreERT;lox/wt peritoneal macrophages after 4-OHT", "format": "cell-based, mice", "settings": "2 μM, 48 hours", "method": "Macrophage Preparation: To harvest peritoneal macrophages (pMØ), the peritoneal cavity was washed with 5 ml of RPMI 10% FBS. The pooled cells were then seeded in RPMI 10% FBS in six-well plates (2×10^6 cells/well), twelve-well plates (1×10^6 cells/well), or 24-well plates (5×10^5 cells/well). After six hours of incubation at 37° C. in a moist atmosphere of 5% CO2 and 95% air, non-adhering cells on each plate were removed by rinsing with phosphate-buffered saline (PBS). The attached macrophages were cultured in different mediums for 12 hours or 48 hours, depending on the experiments performed, as described below. When high amounts of cells were needed (analysis for HIF accumulation and NF-κB activity), macrophages were derived from bone marrow precursors as described before (Meerpohl et al., Eur. J. Immuno. 6:213-7, 1976). Briefly, bone marrow cells (2×10^6 cells/ml) were cultured in a volume of 5 ml in a 10 cm Petri dish (non-tissue culture-treated, bacterial grade) for ten days in DMEM supplemented with 20% FBS and 30% L929 conditioned medium as a source of M-CSF. The cells obtained in those cultures are uniformly macrophages. […]\nQuantitative PCR Analysis: In order to investigate gene expression in pMØ, quantitative RT-PCR (qRT-PCR) was performed. […] Quantitative RT-PCR was perfouned with commercially available or homemade primers and probes for the studied genes. […]"}, "[2]": {"test_system": "F4/80+Tie2+ cells", "test": "Deletion of TEMs by GCV in Tie2:tk-BMT mice (F4/80 and Tie2 double staining of adductor)", "format": "in vivo", "settings": "GCV 50 mg/kg daily"}, "[3]": {"test_system": "secondary and tertiary collateral arteries", "test": "Collateralization and ischemic necrosis in Tie2:tk-BMT mice after GCV", "format": "in vivo", "settings": "PHD2+/- Tie2:tk-BMT mice"}, "[4]": {"test_system": "secondary and tertiary collateral arterioles", "test": "Collateral vessel formation in bone marrow transplanted mice treated with AMD3100/imatinib (gelatin bismuth angiography)", "format": "in vivo", "method": "Mouse Model of Hindlimb Ischemia: To induce hind limb ischemia, unilateral or bilateral ligations of the femoral artery and vein (proximal to the popliteal artery) and the cutaneous vessels branching from the caudal femoral artery side branch were performed without damaging the nervus femoralis (Luttun et al., Nat. Med. 8:831-840, 2002). By using this procedure, collateral flow to adductor muscles is preserved via arterioles branching from the femoral artery, therefore, 50% up to 60% of perfusion is preserved by this method. Two superficial preexisting collateral arterioles connecting the femoral and saphenous arteries were used for analysis. Functional perfusion measurements of the collateral region were performed using a Lisca PIM II camera (Gambro). Gelatin bismuth-based angiography was perfottned as described (Carmeliet et al., Nat. Med. 7:575-583, 2001) and analyzed by photoangiographs (Nikon D1 digital camera). Collateral side branches were categorized as follows: second-generation collateral arterioles directly branched off from the main collateral, whereas third-generation collateral arterioles were orientated perpendicularly to the second-generation branches. The number of secondary and tertiary collateral arterioles was counted. After perfusion-fixation, the muscle tissue between the two superficial collateral arterioles (adductor) was post-fixed in 2% paraformaldehyde (PFA) and paraffin-embedded, and were morphometrically analyzed. An endurance treadmill-running test was perfatmed at 12, 24, 48, and 72 hours after bilateral femoral artery ligation.\nBone Marrow (BM) Transplantation and Hematological Analysis: Balb/c WT and PHD2^+/− recipient mice were irradiated with 7.5 Gy. Subsequently, 5×10^6 bone marrow cells from green fluorescent protein^+ (GFP^+) WT or GFP^+ PHD2^+/− mice were injected intravenously via the tail vein. After one week, saline or AMD3100 (5 mg/kg) was administered intravenously and saline or imatinib ([…]) was administered by oral gavage for four weeks. Femoral artery ligation, treadmill running test and bismuth angiography were performed at six weeks after bone marrow reconstitution. Red and white blood cell count was determined using a hemocytometer on peripheral blood collected in heparin with capillary pipettes by retro-orbital bleeding. To assess the effect of acute deletion of macrophage-borne PHD2 on arteriogenesis, PHD2^Rosa26CreERT;lox/wt bone marrows were transplanted into lethally irradiated WT recipient mice. After five weeks, transplanted mice were injected i.p. with tamoxifen (1 mg/mouse; Sigma) or vehicle for five days. TEM quantification and femoral artery ligation were performed ten days after tamoxifen treatment as explained above. The bone marrow of PHD2^WT;Tie2:GFP or PHD2^HE;Tie2:GFP mice was transplanted in lethally irradiated WT mice. After five weeks, mice were injected systemically (5×10^11 vp) and locally (5×10^9 vp in two points of the adductor) with an AAV9 encoding the mouse extracellular domain of Tie2 fused to a flag tag (AAV9:sTie2). AAV9 encoding the human serum albumin was used as control. One week after injection of the viral vector, mice were subjected to femoral artery ligation. Blood and adductor samples were harvested at baseline and 72 hours post-ischemia and used to sort CD115^+GFP^+ circulating monocytes and F4/80^+GFP^+ macrophages."}, "[5]": {"test_system": "hCASMC (Human coronary artery smooth muscle cells)", "test": "SMC migration (Transwell) toward PHD2+/- macrophages", "format": "cell-based", "settings": "AMD3100 1 μg/ml, imatinib 2.5 μg/ml, alone or combined", "method": "(§1) Cell Migration and Viability Assays: Migration and proliferation of SMCs and ECs were assessed by using 8 μm-pore Transwell peimeable plate for migration assays and 0.4 μm-pore Transwell permeable plate for proliferation assays (Corning Life Science). To determine cell migration toward the factors secreted by pMØ, pMØ were cultured in the lower chamber for twelve hours in RPMI 1% FBS or in M-199 1% FBS (migration assay), or 48 hours in DMEM-F12 1% FBS or in M-199 1% FBS (proliferation assay). For migration assays, hCASMC (Human coronary artery smooth muscle cells; from Lonza) and HUVEC (Human umbilical vein endothelial cells; from Lonza) were starved for twelve hours in their own medium at 1% FBS and, therefore, seeded in the upper chamber (5×10^3 cells in 200 μl of medium 1% FBS), with or without AMD3100 (1 μg/ml, Sigma-Aldrich, Dorset, U.K) and imatinib (2.5 μg/ml, Novartis). SMCs and HUVECs were incubated for two days or 24 hours, respectively, and migrated cells were fixed with 4% PFA, stained with 0.25% crystal violet/50% methanol and counted under the microscope. VEGF (100 ng/mL, R&D), PDGFB (100 ng/mL, R&D) or SDF 1 (100 ng/mL, R&D) were used as positive controls. […] The cell proliferative ability was then analyzed using WST-1 Cell Proliferation Assay (Roche Applied Biosciences) according to the manufacturer instructions after 24 hours of coculture with the pMØ. […]"}, "[6]": {"test_system": "RAOSMC (Rat Aortic Smooth Muscle Cells)", "test": "SMC growth assay (WST-1) in coculture with PHD2+/- macrophages", "format": "cell-based", "settings": "AMD3100, imatinib, alone or combined", "method": "as §1"}, "[7]": {"test_system": "PHD2", "test": "PHD2 expression (qPCR) in bone marrow-derived monocyte/macrophage cultures upon cytokine stimulation", "format": "cell-based, mice", "method": "Quantitative PCR Analysis: In order to investigate gene expression in pMØ, quantitative RT-PCR (qRT-PCR) was performed. After preparing pMØ, the cells were cultured in normoxic condition for twelve hours, and the RNA was extracted. To analyze the gene profile of adductor, gastrocnemius, and soleus muscle, tissues were collected at baseline or 24 hours/72 hours post-ischemia and RNA was extracted. Macrophages and ECs were freshly sorted from dissected adductors as described below and RNA was extracted. Quantitative RT-PCR was perfouned with commercially available or homemade primers and probes for the studied genes. The assay ID (Applied Biosystems, Foster City, Calif.) or the sequence of primers and probes (when homemade) are listed in Table 5. RNA levels of Tie-2, SDF1 and PDGFB after inhibition of NF-κB pathway were measured by qRT-PCR on pMØ exposed for twelve hours to 500 nM 6-amino-4-(4-phenoxyphenylethylamino)quinazoline. […] After 24 hours, cells were harvested for RNA extraction and cDNA preparation."}, "[8]": {"test_system": "Tie2, PDGFB and SDF1", "test": "Expression of PDGFB, SDF1 and Tie2 (qPCR) in monocytes/macrophages upon angiopoietin-1", "format": "cell-based, mice", "settings": "monocytes/macrophages after angiopoietin-1 stimulation (50 and 250 ng/ml)", "method": "Quantitative PCR Analysis: In order to investigate gene expression in pMØ, quantitative RT-PCR (qRT-PCR) was performed. After preparing pMØ, the cells were cultured in normoxic condition for twelve hours, and the RNA was extracted. To analyze the gene profile of adductor, gastrocnemius, and soleus muscle, tissues were collected at baseline or 24 hours/72 hours post-ischemia and RNA was extracted. Macrophages and ECs were freshly sorted from dissected adductors as described below and RNA was extracted. Quantitative RT-PCR was perfouned with commercially available or homemade primers and probes for the studied genes. The assay ID (Applied Biosystems, Foster City, Calif.) or the sequence of primers and probes (when homemade) are listed in Table 5. RNA levels of Tie-2, SDF1 and PDGFB after inhibition of NF-κB pathway were measured by qRT-PCR on pMØ exposed for twelve hours to 500 nM 6-amino-4-(4-phenoxyphenylethylamino)quinazoline. To evaluate PHD2 levels on monocyte/macrophage cultures, 2.5×10^5 bone marrow-derived monocytes/macrophages (see above) were seeded in a 24-well plate in DMEM 10% FBS and stimulated with 50 ng/ml angiopoietin-1 (Peprotech) or 50 ng/ml angiopoietin-2 (Prospec). After 24 hours, cells were harvested for RNA extraction and cDNA preparation."}, "[9]": {"settings": "HE→WT mice, daily AMD3100 5 mg/kg or imatinib 50 mg/kg alone"}}, "data": [{"molecule": "4-hydroxytamoxifen", "values": [{"measurement": "expression of PDGFB, SDF1, and Tie2", "setting": "[1]", "result": "increased expression"}]}, {"molecule": "Nc1nc(O)c2ncn(COC(CO)CO)c2n1", "note": "[GCV, ganciclovir]", "values": [{"measurement": "reduction of density of F4/80+Tie2+ cells", "setting": "[2]; PHD2+/- Tie2:tk-BMT mice, 72 hours post-ischemia", "result": "68±5", "unit": "%"}, {"measurement": "reduction of density of F4/80+Tie2+ cells", "setting": "[2]; PHD2+/- Tie2:tk-BMT mice, baseline", "result": "58±11", "unit": "%"}, {"measurement": "reduction of density of F4/80+Tie2+ cells", "setting": "[2]; WT Tie2:tk-BMT mice, 72 hours post-ischemia", "result": "39±6", "unit": "%"}, {"measurement": "reduction of density of F4/80+Tie2+ cells", "setting": "[2]; WT Tie2:tk-BMT mice, baseline", "result": "46±10", "unit": "%"}, {"measurement": "ischemic protection (fiber necrosis)", "setting": "[3]; 72 hours after ligation", "result": "abolished ischemic protection"}, {"measurement": "formation of secondary and tertiary collateral arteries", "setting": "[3]; baseline, vs untreated group", "result": "completely prevented"}]}, {"molecule": "Cc1ccc(NC(=O)c2ccc(CN3CCN(C)CC3)cc2)cc1Nc1nccc(-c2cccnc2)n1", "note": "[imatinib]", "values": [{"measurement": "increased formation of second generation collateral branches", "setting": "[4]; [9]", "result": "only partially prevented"}, {"measurement": "third generation collaterals", "setting": "[4]; [9]", "result": "affected"}, {"measurement": "number of collateral branch arteries", "setting": "[4]; WT→WT mice, alone or in combination", "result": "not affected"}, {"measurement": "migration of SMCs toward PHD2+/- macrophages", "setting": "[5]", "result": "not effective"}, {"measurement": "increased SMC growth by PHD2+/- macrophages", "setting": "[6]", "result": "abrogated"}]}, {"molecule": "angiopoietin-1: Tie2 ligand cytokine (Peprotech) (protein, UniProt Q15389 16-498, looked up) Angiopoietin-1: HIGCSNQRRSPENSGRRYNRIQHGQCAYTFILPEHDGNCRESTTDQYNTNALQRDAPHVEPDFSSQKLQHLEHVMENYTQWLQKLENYIVENMKSEMAQIQQNAVQNHTATMLEIGTSLLSQTAEQTRKLTDVETQVLNQTSRLEIQLLENSLSTYKLEKQLLQQTNEILKIHEKNSLLEHKILEMEGKHKEELDTLKEEKENLQGLVTRQTYIIQELEKQLNRATTNNSVLQKQQLELMDTVHNLVNLCTKEGVLLKGGKREEEKPFRDCADVYQAGFNKSGIYTIYINNMPEPKKVFCNMDVNGGGWTVIQHREDGSLDFQRGWKEYKMGFGNPSGEYWLGNEFIFAITSQRQYMLRIELMDWEGNRAYSQYDRFHIGNEKQNYRLYLKGHTGTAGKQSSLILHGADFSTKDADNDNCMCKCALMLTGGWWFDACGPSNLNGMFYTAGQNHGKLNGIKWHYFKGPSYSLRSTTMMIRPLDF", "values": [{"measurement": "PHD2 levels down-regulated, dose-dependent, up to", "setting": "[7]; WT monocytes/macrophages", "result": "50 % of the basal levels"}, {"measurement": "PHD2 down-modulation in monocytes/macrophages", "setting": "[7]; after angiopoietin-1 stimulation", "result": 40, "unit": "%"}, {"measurement": "expression of Tie2, PDGFB and SDF1", "setting": "[8]", "result": "increased expression"}]}]}
